The source of these data is ChEMBL document CHEMBL2407030, “Novel nicotinic acetylcholine receptor agonists containing carbonyl moiety as a hydrogen bond acceptor” (Bioorg Med Chem Lett, 2013).

Test [1] addresses T1, Neuronal acetylcholine receptor; alpha4/beta2 (Homo sapiens, UniProt P17787+P43681). Nature of the test: Agonist activity at alpha4beta2 nACHR in human SHEP1 cell membranes assessed as stimulation of calcium flux by FLIPR assay. Format: cell-based.
For test [2], the target named is Neuronal acetylcholine receptor subunit alpha-7 (Homo sapiens, UniProt P36544). Nature of the test: Displacement of [3H]Epibatidine from human alpha7 nACHR expressed in CHO cell membranes after 2 hrs by liquid scintillation counting analysis. A general note: Loss of bound radioactivity is the signal in a displacement assay; it reports binding, not function.
Sequence of Neuronal acetylcholine receptor subunit alpha-7 (P36544 whole entry): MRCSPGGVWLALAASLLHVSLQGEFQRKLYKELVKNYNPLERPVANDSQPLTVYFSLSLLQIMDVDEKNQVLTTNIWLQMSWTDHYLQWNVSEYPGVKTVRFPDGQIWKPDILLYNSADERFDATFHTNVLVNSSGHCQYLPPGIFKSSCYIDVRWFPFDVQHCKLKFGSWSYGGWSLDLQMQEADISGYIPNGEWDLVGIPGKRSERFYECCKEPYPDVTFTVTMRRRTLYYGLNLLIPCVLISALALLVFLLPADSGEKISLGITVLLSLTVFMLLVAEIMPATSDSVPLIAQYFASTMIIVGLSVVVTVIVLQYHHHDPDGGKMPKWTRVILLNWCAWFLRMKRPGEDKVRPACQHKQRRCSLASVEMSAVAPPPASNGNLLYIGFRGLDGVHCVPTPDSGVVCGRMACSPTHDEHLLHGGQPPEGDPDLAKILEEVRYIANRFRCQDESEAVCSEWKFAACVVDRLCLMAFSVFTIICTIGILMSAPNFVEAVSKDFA
In test [3] the target is T1, Neuronal acetylcholine receptor; alpha4/beta2. Nature of the test: Agonist activity at alpha4beta2 nACHR in human SHEP1 cell membranes assessed as stimulation of calcium flux by FLIPR assay relative to control. Format: cell-based. A general note: Calcium assays in cells follow changes in intracellular calcium, usually with a dye or a luminescent sensor.
In test [4] the target is T2, Neuronal acetylcholine receptor; alpha3/beta4 (Homo sapiens, UniProt P30926+P32297). Nature of the test: Displacement of [3H]Epibatidine from human alpha3beta4 nACHR expressed in CHO cell membranes after 2 hrs by liquid scintillation counting analysis.
T2 sequence (P30926 whole entry): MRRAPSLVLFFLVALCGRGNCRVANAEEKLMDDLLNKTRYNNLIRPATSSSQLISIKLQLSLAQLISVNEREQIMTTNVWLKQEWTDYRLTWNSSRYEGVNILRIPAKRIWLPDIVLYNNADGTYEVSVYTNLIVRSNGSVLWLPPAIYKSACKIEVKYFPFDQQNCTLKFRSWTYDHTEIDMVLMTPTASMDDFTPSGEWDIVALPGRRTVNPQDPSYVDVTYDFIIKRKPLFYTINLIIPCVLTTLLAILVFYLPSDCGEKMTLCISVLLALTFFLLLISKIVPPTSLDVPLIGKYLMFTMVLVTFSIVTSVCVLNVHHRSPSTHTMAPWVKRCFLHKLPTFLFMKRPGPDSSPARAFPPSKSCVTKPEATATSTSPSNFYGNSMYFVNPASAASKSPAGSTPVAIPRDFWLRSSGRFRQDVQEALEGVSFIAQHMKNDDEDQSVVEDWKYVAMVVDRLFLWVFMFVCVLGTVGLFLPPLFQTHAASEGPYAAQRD
T2 sequence (P32297 whole entry): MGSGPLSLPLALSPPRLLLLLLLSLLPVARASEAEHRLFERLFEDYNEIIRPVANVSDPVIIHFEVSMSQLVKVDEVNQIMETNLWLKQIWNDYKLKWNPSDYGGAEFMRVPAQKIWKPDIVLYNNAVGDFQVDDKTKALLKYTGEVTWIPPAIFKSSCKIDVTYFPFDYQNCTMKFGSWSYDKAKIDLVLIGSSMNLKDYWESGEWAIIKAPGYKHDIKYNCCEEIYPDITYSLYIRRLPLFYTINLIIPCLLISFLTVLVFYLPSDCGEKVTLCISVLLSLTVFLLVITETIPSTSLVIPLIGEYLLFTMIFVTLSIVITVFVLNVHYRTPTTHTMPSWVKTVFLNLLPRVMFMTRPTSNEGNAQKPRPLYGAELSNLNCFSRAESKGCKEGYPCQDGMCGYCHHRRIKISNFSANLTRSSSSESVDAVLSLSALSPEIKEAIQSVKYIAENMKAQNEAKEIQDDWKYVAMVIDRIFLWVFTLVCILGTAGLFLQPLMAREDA
For test [5], the target named is T1, Neuronal acetylcholine receptor; alpha4/beta2. Nature of the test: Displacement of [3H]Nicotine from alpha4beta2 nACHR in human SHEP1 cell membranes after 2 hrs by liquid scintillation counting analysis.
Test [6] addresses T2, Neuronal acetylcholine receptor; alpha3/beta4. Nature of the test: Agonist activity at human alpha3beta4 nACHR expressed in CHO cell membranes assessed as stimulation of calcium flux by FLIPR assay relative to control. The test is classed as cell-based.
The target is the same in test [7]. Nature of the test: Agonist activity at human alpha3beta4 nACHR expressed in CHO cell membranes assessed as stimulation of calcium flux by FLIPR assay. Format: cell-based.

For orientation: EC50 means the concentration needed to bring the measured effect to its halfway point. The Ki is the dissociation constant of the complex between target and ligand, obtained from inhibition or displacement. A lower Ki goes with a stronger hold on the target. As usually defined, the Emax is the maximal effect, on the per cent scale that the assay sets.

T1 sequence (P17787 whole entry): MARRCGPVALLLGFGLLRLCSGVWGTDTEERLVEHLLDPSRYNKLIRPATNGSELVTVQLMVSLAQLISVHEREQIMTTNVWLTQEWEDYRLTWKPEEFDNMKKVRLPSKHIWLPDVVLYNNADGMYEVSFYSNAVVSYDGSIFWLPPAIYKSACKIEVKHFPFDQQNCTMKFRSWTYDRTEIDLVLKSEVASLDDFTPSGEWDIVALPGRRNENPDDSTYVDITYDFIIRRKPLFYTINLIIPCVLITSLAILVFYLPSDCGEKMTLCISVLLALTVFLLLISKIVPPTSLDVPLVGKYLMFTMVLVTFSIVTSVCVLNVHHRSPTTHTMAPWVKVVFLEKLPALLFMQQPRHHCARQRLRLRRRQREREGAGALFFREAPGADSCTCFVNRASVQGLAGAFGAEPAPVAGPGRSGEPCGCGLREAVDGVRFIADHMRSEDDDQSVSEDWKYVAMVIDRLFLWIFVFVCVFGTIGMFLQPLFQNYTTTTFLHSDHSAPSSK
T1 sequence (P43681 whole entry): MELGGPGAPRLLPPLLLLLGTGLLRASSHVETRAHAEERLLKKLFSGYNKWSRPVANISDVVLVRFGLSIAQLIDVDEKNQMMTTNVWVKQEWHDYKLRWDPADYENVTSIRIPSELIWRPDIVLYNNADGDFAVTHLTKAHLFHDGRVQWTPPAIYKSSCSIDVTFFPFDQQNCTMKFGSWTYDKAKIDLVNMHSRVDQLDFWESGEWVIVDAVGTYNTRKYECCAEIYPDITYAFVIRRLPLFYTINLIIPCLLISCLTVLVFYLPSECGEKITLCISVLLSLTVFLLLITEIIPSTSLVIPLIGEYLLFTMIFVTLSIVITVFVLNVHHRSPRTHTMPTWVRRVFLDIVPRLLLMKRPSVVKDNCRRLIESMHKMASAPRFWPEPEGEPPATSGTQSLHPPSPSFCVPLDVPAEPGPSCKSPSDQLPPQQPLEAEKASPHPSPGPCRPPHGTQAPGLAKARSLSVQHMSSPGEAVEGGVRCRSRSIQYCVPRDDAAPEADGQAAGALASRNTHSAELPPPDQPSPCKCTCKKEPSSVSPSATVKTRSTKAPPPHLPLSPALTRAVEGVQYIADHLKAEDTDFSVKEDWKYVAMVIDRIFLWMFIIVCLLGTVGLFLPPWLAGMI

For the compound `CC(C)NC(=O)[C@H]1C[C@@H]2CNC[C@@H](C2)C1`, the EC50 in test [1] came out at 1900 nM; in test [7], 27000 nM. For the same compound, the Ki in test [2] was 11000 nM; in test [4], 6000 nM; in test [5] it was 23 nM. In addition, the Emax was determined as 64% in test [3] and 25% in test [6].

For `O=C([C@H]1C[C@@H]1F)N1CC2CNCC2C1` (mixture of isomers), the EC50 worked out at 900 nM in test [1] and 14000 nM in test [7]. Further, the Ki is 2700 nM in test [2], 810 nM in test [4] and 30 nM in test [5]. Also, the Emax in test [3] came out at 140%; in test [6], 90%.

Take `CNC(=O)[C@H]1C[C@@H]2CNC[C@@H](C2)C1`: the EC50 in test [1] stood at 2000 nM; in test [7], 100000 nM. In addition, the Emax was 65% in test [3] and 5% in test [6]. This compound registered a Ki in test [5] of 1.9 nM.

Consider `CC(=O)N1CC2CNCC(C2)C1` (mixture of isomers), for which the EC50 came to 9900 nM in test [1] and 13000 nM in test [7]. The Ki in test [2] stood at 3300 nM; in test [4] it was 5500 nM. The figures for the Emax in test [3] and in test [6] were 34% and 110%, respectively.

`C[C@@H]1C[C@H]1C(=O)N1CC2CNCC(C2)C1` (mixture of isomers): the EC50 was 12000 nM in test [1] and 1600 nM in test [7]. The figures for the Ki in test [2], in test [4] and in test [5] were 30 nM, 100 nM and 1 nM, respectively. The Emax in test [3] is 23%; in test [6] it was 120%.

In the case of `O=C([C@H]1C[C@H]1F)N1CC2CNCC2C1` (mixture of isomers), the EC50 came out at 1000 nM in test [1] and 24000 nM in test [7]. Besides, the results for the Ki in test [2], in test [4] and in test [5] were 1400 nM, 380 nM and 5 nM, respectively. Moreover, the Emax stood at 130% in test [3] and 140% in test [6].

As for `COC(=O)[C@H]1C[C@H]2CNC[C@H]2C1` (mixture of isomers), the EC50 in test [1] came out at 1200 nM; in test [7] it was 14000 nM. In addition, the Ki in test [2] came out at 13000 nM; in test [4] it was 400 nM; in test [5], 8 nM. In addition, the Emax in test [3] was 130%; in test [6], 100%.

Turning to `C[C@H]1C[C@H]1C(=O)N1CC2CNCC(C2)C1` (mixture of isomers), the values for the EC50 in test [1] and in test [7] were 100000 nM and 300 nM, respectively. Also, the Ki in test [2] amounted to 100 nM; in test [4] it was 100 nM; in test [5] it was 2.9 nM. Further, the Emax in test [3] was found to be 0.5%; in test [6], 140%.

For the compound `COC(=O)N1CC2CNCC2C1` (mixture of isomers), the figures for the Ki in test [4] and in test [5] were 14000 nM and 23 nM, respectively. The Emax in test [6] was determined as 85%. Further, in test [7], the EC50 stood at 16000 nM.

Take `CCC(=O)N1CC2CNCC(C2)C1` (mixture of isomers): the values for the EC50 in test [1] and in test [7] were 1900 nM and 5900 nM, respectively. In addition, the Ki in test [2] stood at 1600 nM; in test [4] it was 20000 nM; in test [5] it was 8 nM. Also, the Emax in test [3] was 83%; in test [6], 130%.

Take `O=C([C@H]1C[C@@H]1F)N1CC2CNCC(C2)C1` (mixture of isomers): the EC50 turned out to be 2700 nM in test [1] and 8000 nM in test [7]. Moreover, the Ki in test [2] was 400 nM; in test [4], 320 nM; in test [5] it was 7.3 nM. The Emax in test [3] was 84%; in test [6], 210%.

Take `O=C(C1CC1)[C@H]1C[C@H]2CNC[C@H]2C1` (mixture of isomers): the EC50 in test [1] was determined as 18 nM; in test [7], 930 nM. Further, the results for the inhibition constant (Ki) in test [2], in test [4] and in test [5] were 140 nM, 70 nM and 0.5 nM, respectively. Besides, the Emax worked out at 120% in test [3] and 130% in test [6].

For `CC(=O)N1CC2CNCC2C1` (mixture of isomers), the figures for the EC50 in test [1] and in test [7] were 2600 nM and 23000 nM, respectively. In addition, the results for the Emax in test [3] and in test [6] were 110% and 36%, respectively. In addition, the Ki in test [4] was 14000 nM; in test [5] it was 38 nM.

Take `O=C([C@@H]1C[C@H]1F)N1CC2CNCC2C1` (mixture of isomers): the EC50 stood at 190 nM in test [1] and 8400 nM in test [7]. Besides, the Ki in test [2] is 990 nM; in test [4], 420 nM; in test [5], 9 nM. Besides, the Emax in test [3] was found to be 130%; in test [6], 150%.

As to `CNC(=O)[C@H]1C[C@H]2CNC[C@H]2C1` (mixture of isomers), the Ki in test [2] is 27000 nM; in test [5], 180 nM.

Consider `C[C@@H]1C[C@H]1C(=O)N1CC2CNCC2C1` (mixture of isomers), for which the EC50 was found to be 1700 nM in test [1] and 14000 nM in test [7]. For the same compound, the values for the Ki in test [2], in test [4] and in test [5] were 1900 nM, 360 nM and 4 nM, respectively. Also, the Emax amounted to 100% in test [3] and 110% in test [6].

On to `C[C@@H]1C[C@@H]1C(=O)N1CC2CNCC2C1` (mixture of isomers), for which the values for the EC50 in test [1] and in test [7] were 1200 nM and 1400 nM, respectively. Moreover, the values for the Ki in test [2], in test [4] and in test [5] were 350 nM, 280 nM and 1 nM, respectively. The Emax in test [3] came to 140%; in test [6], 180%.

For the compound `O=C([C@@H]1C[C@@H]1F)N1CC2CNCC2C1` (mixture of isomers), the EC50 was 930 nM in test [1] and 13000 nM in test [7]. In addition, the Ki was found to be 6900 nM in test [2], 860 nM in test [4] and 17 nM in test [5]. Moreover, the Emax in test [3] amounted to 120%; in test [6] it was 88%.

In the case of `O=C([C@H]1C[C@H]1F)N1CC2CNCC(C2)C1` (mixture of isomers), the concentration giving a half-maximal response (EC50) turned out to be 9200 nM in test [1] and 2100 nM in test [7]. The Ki in test [2] worked out at 100 nM; in test [4] it was 150 nM; in test [5] it was 1.4 nM. Further, the Emax in test [3] worked out at 7%; in test [6] it was 130%.

As for `O=C(C1CC1)[C@H]1C[C@@H]2CNC[C@@H](C2)C1`, the EC50 in test [1] is 7100 nM; in test [7] it was 1300 nM. Besides, the Emax was determined as 22% in test [3] and 10% in test [6]. In addition, the results for the Ki in test [4] and in test [5] were 4100 nM and 43 nM, respectively.

For the compound `CCCNC(=O)[C@H]1C[C@@H]2CNC[C@@H](C2)C1`, the EC50 in test [1] turned out to be 2400 nM; in test [7] it was 15000 nM. Further, the Ki in test [2] was determined as 10000 nM; in test [4], 4000 nM; in test [5] it was 6 nM. Besides, the Emax was 54% in test [3] and 24% in test [6].

On to `O=C(c1ccco1)[C@H]1C[C@H]2CNC[C@H]2C1` (mixture of isomers), for which the EC50 in test [1] was 1600 nM; in test [7], 11000 nM. Also, the Ki came to 3400 nM in test [2], 2200 nM in test [4] and 13 nM in test [5]. Further, the Emax worked out at 94% in test [3] and 40% in test [6].

Take `O=C(c1ccco1)[C@H]1C[C@@H]2CNC[C@@H](C2)C1`: the Ki in test [2] was determined as 15000 nM; in test [5], 110 nM.

For the compound `C[C@H]1C[C@@H]1C(=O)N1CC2CNCC(C2)C1` (mixture of isomers), the EC50 in test [1] is 10000 nM; in test [7], 8300 nM. For the same compound, the Ki stood at 300 nM in test [2], 600 nM in test [4] and 28 nM in test [5]. In addition, the Emax in test [3] is 21%; in test [6], 89%.

Regarding `C[C@@H]1C[C@@H]1C(=O)N1CC2CNCC(C2)C1` (mixture of isomers), the EC50 in test [1] is 1900 nM; in test [7] it was 80 nM. Also, the Ki in test [2] worked out at 5 nM; in test [4] it was 10 nM; in test [5], 0.2 nM. In addition, the results for the Emax in test [3] and in test [6] were 5% and 160%, respectively.

For `COC(=O)N1CC2CNCC(C2)C1` (mixture of isomers), the EC50 in test [1] came out at 5200 nM. For the same compound, in test [3], the Emax is 65%. This compound returned a Ki in test [5] of 20 nM.

Turning to `C[C@H]1C[C@H]1C(=O)N1CC2CNCC2C1` (mixture of isomers), the results for the EC50 in test [1] and in test [7] were 19000 nM and 10000 nM, respectively. For the same compound, the Ki worked out at 4500 nM in test [2], 2000 nM in test [4] and 18 nM in test [5]. Moreover, the Emax was 100% in test [3] and 110% in test [6].

Take `CN1CCC[C@H]1c1cccnc1`: the Emax in test [3] and in test [6] was 100% in each case.

For the compound `C[C@H]1C[C@@H]1C(=O)N1CC2CNCC2C1` (mixture of isomers), the EC50 in test [1] came out at 5600 nM; in test [7], 34000 nM. The Ki in test [2] was 100000 nM; in test [4], 13000 nM; in test [5] it was 43 nM. Further, the Emax stood at 68% in test [3] and 26% in test [6].

For `O=C([C@@H]1C[C@@H]1F)N1CC2CNCC(C2)C1` (mixture of isomers), the EC50 in test [1] worked out at 400 nM; in test [7], 11000 nM. The Ki in test [2] amounted to 300 nM; in test [4], 1200 nM; in test [5], 5.2 nM. The Emax in test [3] turned out to be 11%; in test [6], 90%.

Regarding `O=C([C@@H]1C[C@H]1F)N1CC2CNCC(C2)C1` (mixture of isomers), the values for the EC50 in test [1] and in test [7] were 430 nM and 390 nM, respectively. Also, the Ki in test [2] was 10 nM; in test [4], 36 nM; in test [5], 1 nM. Besides, the Emax in test [3] is 77%; in test [6], 130%.

As to `COC(=O)C1CC2CNCC(C2)C1` (mixture of isomers), the affinity in test [5], expressed as Ki, was 2400 nM.
